Tested on: AF24-28AC
Assay: Antibiotic sensitivity of AF24-28AC by the drug sensitive paper method
Type: cell-based, Megamonas funiformis
Details: for Resistance / sensitivity of AF24-28AC to the antibiotic: drug sensitive paper method, result in words
Experimental: The sensitivity of AF24-28AC to 20 common antibiotics was tested by the drug sensitive paper method. 100 μl of AF24-28AC bacterial solution cultured to the logarithmic phase was spread plated. Antibiotic susceptibility papers (purchased from Hangzhou Microbial Reagent Co. LTD.) were affixed on the medium surface of plates, cultured at 37° C. for 48 hours, after which the size of inhibition zone was measured.

Row | Molecule | Diameter of inhibition zone (antibiotic susceptibility papers on plates spread with AF24-28AC, 37° C., 48 hours) | Resistance / sensitivity of AF24-28AC to the antibiotic
1 | CN(C)[C@@H]1C(=O)C(C(N)=O)=C(O)[C@@]2(O)C(=O)C3=C(O)c4c(O)cccc4[C@@](C)(O)[C@H]3C[C@@H]12 [Acheomycin] | 4.2 cm | –
2 | CCN1CCN(C(=O)N[C@@H](C(=O)N[C@@H]2C(=O)N3C(C(=O)O)=C(CSc4nnnn4C)CS[C@H]23)c2ccc(O)cc2)C(=O)C1=O [Cefoperazone] | – | resistant
3 | Cc1onc(-c2ccccc2)c1C(=O)N[C@@H]1C(=O)N2[C@@H]1SC(C)(C)[C@@H]2C(=O)O [Oxacillin] | – | resistant
4 | Penicillin | – | resistant

— US11160837B2, “Megamonas funiformis and applications thereof” (BGI SHENZHEN, priority 2017, dated 2021)
